From patent publication US8722665B2, “Cinnamido-pyrrolo[2,1-C][1,4]benzodiazepines as potential anticancer agents and process for the preparation thereof” (Council of Scientific & Industrial Research, priority 2008, dated 2014)

Assays:
[1] = tested on: UACC-257; assay: In vitro cytotoxicity (SRB); type: cell-based, human; conditions: UACC-257 (Melanoma); 48 h continuous drug exposure
Protocol: (§1) The compounds were evaluated for in vitro anticancer activity against sixty human tumour cells derived from nine cancer types (leukemia, non-small-cell lung, colon, CNS, melanoma, ovarian, prostate, and breast cancer) as shown in Table 1a. For each compound, dose response curves for each cell line were measured at a minimum of five concentrations at 10 fold dilutions. A protocol of 48 h continuous drug exposure was used and a sulforhodamine B (SRB) protein assay was used to estimate cell viability or growth. The concentration causing 50% cell growth inhibition (GI50), total cell growth inhibition (TGI 0% growth) and 50% cell death (LC50, −50% growth) compared with the control was calculated. The Log10 GI50 (concentration in mol/L causing 50% growth inhibition) values for Cinnamido-pyrrolo[2,1-c][1,4]benzodiazepine (8b) is listed in Table 2.

[2] = tested on: EKVX; assay: In vitro cytotoxicity (SRB); type: cell-based, human; conditions: EKVX (Non-small cell lung); 48 h continuous drug exposure
Protocol: as §1

[3] = tested on: CAKI-1; assay: In vitro cytotoxicity (SRB); type: cell-based, human; conditions: CAKI-1 (Renal); 48 h continuous drug exposure
Protocol: as §1

[4] = tested on: NCI-H460; assay: In vitro cytotoxicity (SRB); type: cell-based, human; conditions: NCI-H460 (Non-small cell lung); 48 h continuous drug exposure
Protocol: as §1

[5] = tested on: SK-MEL-5; assay: In vitro cytotoxicity (SRB); type: cell-based, human; conditions: SK-MEL-5 (Melanoma); 48 h continuous drug exposure
Protocol: as §1

[6] = tested on: CCRF-CEM; assay: In vitro cytotoxicity (SRB); type: cell-based, human; conditions: CCRF-CEM (Leukemia); 48 h continuous drug exposure
Protocol: as §1

[7] = tested on: NCI-H522; assay: In vitro cytotoxicity (SRB); type: cell-based, human; conditions: NCI-H522 (Non-small cell lung); 48 h continuous drug exposure
Protocol: as §1

[8] = tested on: SNB-19; assay: In vitro cytotoxicity (SRB); type: cell-based, human; conditions: SNB-19 (CNS); 48 h continuous drug exposure
Protocol: as §1

[9] = tested on: HOP-92; assay: In vitro cytotoxicity (SRB); type: cell-based, human; conditions: 48 h continuous drug exposure
Protocol: as §1

[10] = tested on: NCI-H226; assay: In vitro cytotoxicity (SRB); type: cell-based, human; conditions: NCI-H226 (Non-small cell lung); 48 h continuous drug exposure
Protocol: as §1

[11] = tested on: COLO 205; assay: In vitro cytotoxicity (SRB); type: cell-based, human; conditions: COLO 205 (Colon); 48 h continuous drug exposure
Protocol: as §1

[12] = tested on: MDA-MB-435; assay: In vitro cytotoxicity (SRB); type: cell-based, human; conditions: MDA-MB-435 (Breast); 48 h continuous drug exposure
Protocol: as §1

[13] = tested on: OVCAR-3; assay: In vitro cytotoxicity (SRB); type: cell-based, human; conditions: OVCAR-3 (Ovarian); 48 h continuous drug exposure
Protocol: as §1

[14] = tested on: UO-31; assay: In vitro cytotoxicity (SRB); type: cell-based, human; conditions: UO-31 (Renal); 48 h continuous drug exposure
Protocol: as §1

[15] = tested on: SF-295; assay: In vitro cytotoxicity (SRB); type: cell-based, human; conditions: SF-295 (CNS); 48 h continuous drug exposure
Protocol: as §1

[16] = tested on: LOX IMVI; assay: In vitro cytotoxicity (SRB); type: cell-based, human; conditions: LOX IMVI (Melanoma); 48 h continuous drug exposure
Protocol: as §1

[17] = tested on: NCI-H322M; assay: In vitro cytotoxicity (SRB); type: cell-based, human; conditions: NCI-H322M (Non-small cell lung); 48 h continuous drug exposure
Protocol: as §1

[18] = tested on: KM12; assay: In vitro cytotoxicity (SRB); type: cell-based, human; conditions: KM12 (Colon); 48 h continuous drug exposure
Protocol: as §1

[19] = tested on: MDA-MB-468; assay: In vitro cytotoxicity (SRB); type: cell-based, human; conditions: MDA-MB-468 (Breast); 48 h continuous drug exposure
Protocol: as §1

[20] = tested on: PC-3; assay: In vitro cytotoxicity (SRB); type: cell-based, human; conditions: PC-3 (Prostate); 48 h continuous drug exposure
Protocol: as §1

[21] = tested on: SK-MEL-28; assay: In vitro cytotoxicity (SRB); type: cell-based, human; conditions: SK-MEL-28 (Melanoma); 48 h continuous drug exposure
Protocol: as §1

[22] = tested on: OVCAR-5; assay: In vitro cytotoxicity (SRB); type: cell-based, human; conditions: OVCAR-5 (Ovarian); 48 h continuous drug exposure
Protocol: as §1

[23] = tested on: HT29; assay: In vitro cytotoxicity (SRB); type: cell-based, human; conditions: HT29 (Colon); 48 h continuous drug exposure
Protocol: as §1

[24] = tested on: sixty human tumour cell lines; assay: In vitro cytotoxicity (SRB), mean graph midpoints; type: cell-based; conditions: 48 h exposure
Protocol: as §1

[25] = tested on: Breast cell lines; assay: In vitro cytotoxicity (SRB), cancer panel; type: cell-based, human; conditions: average of six to eight cell lines, 48 h exposure
Protocol: as §1

[26] = tested on: Melanoma cell lines; assay: In vitro cytotoxicity (SRB), cancer panel; type: cell-based, human; conditions: average of six to eight cell lines, 48 h exposure
Protocol: as §1

[27] = tested on: Prostate cell lines; assay: In vitro cytotoxicity (SRB), cancer panel; type: cell-based, human; conditions: average of six to eight cell lines, 48 h exposure
Protocol: as §1

[28] = tested on: Leukemia cell lines; assay: In vitro cytotoxicity (SRB), cancer panel; type: cell-based, human; conditions: average of six to eight cell lines, 48 h exposure
Protocol: as §1

[29] = tested on: Renal cell lines; assay: In vitro cytotoxicity (SRB), cancer panel; type: cell-based, human; conditions: average of six to eight cell lines, 48 h exposure
Protocol: as §1

[30] = tested on: Colon cell lines; assay: In vitro cytotoxicity (SRB), cancer panel; type: cell-based, human; conditions: average of six to eight cell lines, 48 h exposure
Protocol: as §1

[31] = tested on: Ovarian cell lines; assay: In vitro cytotoxicity (SRB), cancer panel; type: cell-based, human; conditions: average of six to eight cell lines, 48 h exposure
Protocol: as §1

[32] = tested on: CNS cell lines; assay: In vitro cytotoxicity (SRB), cancer panel; type: cell-based, human; conditions: average of six to eight cell lines, 48 h exposure
Protocol: as §1

[33] = tested on: Non-small-cell lung cell lines; assay: In vitro cytotoxicity (SRB), cancer panel; type: cell-based, human; conditions: average of six to eight cell lines, 48 h exposure
Protocol: as §1

## COc1cc(/C=C/C(=O)N2CCN(C(=O)c3cc(OC)c(OC)c(OC)c3)CC2)ccc1OCCCOc1cc2c(cc1OC)C(=O)N1CCC[C@H]1C=N2 [8b, 7-methoxy-8-{3-(2-methoxy-4-(E)-3-oxo-3-[4-(3,4,5-trimethoxybenzoyl)piperazino]-1-propenylphenoxy)propoxy}-(11aS)-2,3,5,11^a-tetrahydro-5H-pyrrolo[2,1-c][1,4]benzo-diazepine-5-one]
[1]
  GI50: 270 nM
[2]
  GI50: 860 nM
[3]
  GI50: 1120 nM
[4]
  GI50: 330 nM
[5]
  GI50: 190 nM
[6]
  GI50: 250 nM
[7]
  GI50: 660 nM
[8]
  GI50: 330 nM
[9]; HOP-92, first line so named (Non-small cell lung)
  GI50: 320 nM
[9]; HOP-92, second line so named (Non-small cell lung)
  GI50: 170 nM
[10]
  GI50: 250 nM
[11]
  GI50: 180 nM
[12]
  GI50: 170 nM
[13]
  GI50: 290 nM
[14]
  GI50: 1150 nM
[15]
  GI50: 10 nM
[16]
  GI50: 180 nM
[17]
  GI50: 3070 nM
[18]
  GI50: 280 nM
[19]
  GI50: 140 nM
[20]
  GI50: 340 nM
[21]
  GI50: 210 nM
[22]
  GI50: 290 nM
[23]
  GI50: 400 nM
[24]
  Log10 GI50 mean graph midpoint (MG_MID): −6.48 mol/L
  Log10 LC50 mean graph midpoint (MG_MID): −4.5
  Log10 TGI mean graph midpoint (MG_MID): −5.59
[25]
  Log10 GI50: −6.51 mol/L
[26]
  Log10 GI50: −6.64 mol/L
[27]
  Log10 GI50: −6.44 mol/L
[28]
  Log10 GI50: −6.77 mol/L
[29]
  Log10 GI50: −6.20 mol/L
[30]
  Log10 GI50: −6.43 mol/L
[31]
  Log10 GI50: −6.36 mol/L
[32]
  Log10 GI50: −6.78 mol/L
[33]
  Log10 GI50: −6.31 mol/L
